These results are taken from patent US12594276B2, “Inhibitors of human immunodeficiency virus replication” (ViiV Healthcare UK (No.5) Limited, priority 2024, dated 2026).

A short description of data set [1]: Compound cytotoxicity, XTT-based colorimetric assay. Format: cell-based. Conditions: human; uninfected MT2 cells, day 4, XTT; read-out: CC50. An outline of the steps: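 Uninfected MT2 cells, antiviral-assay protocol without virus; XTT colorimetric readout day 4; CC50 reported.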
Data set [2] concerns recombinant NL4-3 virus (nef section replaced with Renilla luciferase gene) in MT-2 cells. As to the kind of experiment: HIV cell culture assay (antiviral activity, luciferase readout). Conditions: Renilla, NL43, MT-2 cells infected for 4-5 days with recombinant NL4-3 Renilla luciferase virus. The format is cell-based. An outline of the steps: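 Reporter virus is produced in 293T cells and its titer set in MT-2 cells by luciferase activity. MT-2 cells are then infected in the presence of serially diluted compound for 4-5 days. Luciferase is quantified and EC50 fitted to the median effect equation.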

Consider `Cc1cc(C2CCC(F)(F)CC2)nc2nc([C@H](Cc3cc(F)cc(F)c3)NC(=O)Cn3nc(C(F)(F)F)c4c3C(F)(F)[C@@H]3C[C@H]43)n(-c3ccc(Cl)c4c(NS(C)(=O)=O)nn(CCN5CCOCC5)c34)c(=O)c12` (atropisomer, axis not shown; (P)) [Example 116, N-[(1S)-1-[(3P)-3-{4-chloro-3-methanesulfonamido-1-[2-(morpholin-4-yl)ethyl]-1H-indazol-7-yl}-7-(4,4-difluorocyclohexyl)-5-methyl-4-oxo-3H,4H-pyrido[2,3-d]pyrimidin-2-yl]-2-(3,5-difluorophenyl)ethyl]-2-[(2S,4R)-5,5-difluoro-9-(trifluoromethyl)-7,8-diazatricyclo[4.3.0.0^2,^4]nona-1(6),8-dien-7-yl]acetamide], for which the CC50 at 4 days in data set [1] is above 50 nM. The EC50 in data set [2] came out at 0.012 nM.

As for `Cc1cc(C2CCC(F)(F)CC2)nc2nc([C@H](Cc3cc(F)cc(F)c3)NC(=O)Cn3nc(C(F)(F)F)c4c3C(F)(F)[C@@H]3C[C@H]43)n(-c3ccc(Cl)c4c(NS(C)(=O)=O)nn(CCCN5CCOCC5)c34)c(=O)c12` (atropisomer, axis not shown; (P)) [Example 121, N-[(1S)-1-[(3P)-3-{4-chloro-3-methanesulfonamido-1-[3-(morpholin-4-yl)propyl]-1H-indazol-7-yl}-7-(4,4-difluorocyclohexyl)-5-methyl-4-oxo-3H,4H-pyrido[2,3-d]pyrimidin-2-yl]-2-(3,5-difluorophenyl)ethyl]-2-[(2S,4R)-5,5-difluoro-9-(trifluoromethyl)-7,8-diazatricyclo[4.3.0.0^2,^4]nona-1(6),8-dien-7-yl]acetamide], the CC50 at 4 days in data set [1] was above 50 nM. The EC50 in data set [2] amounted to 0.027 nM.

With `Cc1cc(C2CCC(F)(F)CC2)nc2nc([C@H](Cc3cc(F)cc(F)c3)NC(=O)Cn3nc(C(F)F)c4c3C(F)(F)[C@@H]3C[C@H]43)n(-c3ccc(Cl)c4c(NS(C)(=O)=O)nn(CCN5CCC(F)(F)CC5)c34)c(=O)c12` (atropisomer, axis not shown; (P)) [Example 128, N-[(1S)-1-[(3P)-3-{4-chloro-1-[2-(4,4-difluoropiperidin-1-yl)ethyl]-3-methanesulfonamido-1H-indazol-7-yl}-7-(4,4-difluorocyclohexyl)-5-methyl-4-oxo-3H,4H-pyrido[2,3-d]pyrimidin-2-yl]-2-(3,5-difluorophenyl)ethyl]-2-[(2S,4R)-9-(difluoromethyl)-5,5-difluoro-7,8-diazatricyclo[4.3.0.0^2,^4]nona-1(6),8-dien-7-yl]acetamide], the CC50 at 4 days in data set [1] was above 50 nM. In addition, the EC50 in data set [2] amounted to 0.013 nM.

With `Cc1cc(C2CCC(F)(F)CC2)nc2nc([C@H](Cc3cc(F)cc(F)c3)NC(=O)Cn3nc(C(F)F)c4c3C(F)(F)[C@@H]3C[C@H]43)n(-c3ccc(Cl)c4c(NS(C)(=O)=O)nn(CCOC(C)(C)C)c34)c(=O)c12` (atropisomer, axis not shown; (P)) [Example 129, N-[(1S)-1-[(3P)-3-{1-[2-(tert-butoxy)ethyl]-4-chloro-3-methanesulfonamido-1H-indazol-7-yl}-7-(4,4-difluorocyclohexyl)-5-methyl-4-oxo-3H,4H-pyrido[2,3-d]pyrimidin-2-yl]-2-(3,5-difluorophenyl)ethyl]-2-[(2S,4R)-9-(difluoromethyl)-5,5-difluoro-7,8-diazatricyclo[4.3.0.0^2,^4]nona-1(6),8-dien-7-yl]acetamide], the CC50 at 4 days in data set [1] is above 50 nM. Also, the EC50 in data set [2] came out at 0.024 nM.

In the case of `CS(=O)(=O)Nc1nn(CCN2CCC(F)(F)CC2)c2c(-n3c([C@H](Cc4cc(F)cc(F)c4)NC(=O)Cn4nc(C(F)F)c5c4C(F)(F)[C@@H]4C[C@H]54)nc4nc(C5CCC(F)(F)CC5)ccc4c3=O)ccc(Cl)c12` (atropisomer, axis not shown; (P)) [Example 130, N-[(1S)-1-[(3P)-3-{4-chloro-1-[2-(4,4-difluoropiperidin-1-yl)ethyl]-3-methanesulfonamido-1H-indazol-7-yl}-7-(4,4-difluorocyclohexyl)-4-oxo-3H,4H-pyrido[2,3-d]pyrimidin-2-yl]-2-(3,5-difluorophenyl)ethyl]-2-[(2S,4R)-9-(difluoromethyl)-5,5-difluoro-7,8-diazatricyclo[4.3.0.0^2,^4]nona-1(6),8-dien-7-yl]acetamide], the CC50 at 4 days in data set [1] is above 50 nM. The EC50 in data set [2] came out at 0.013 nM.

As for `COCCNc1cc(C2CCC(F)(F)CC2)nc2nc([C@H](Cc3cc(F)cc(F)c3)NC(=O)Cn3nc(C(F)F)c4c3C(F)(F)[C@@H]3C[C@H]43)n(-c3ccc(Cl)c4c(NS(C)(=O)=O)nn(CCOC)c34)c(=O)c12` (atropisomer, axis not shown; (P)) [Example 134, N-[(1S)-1-[(3P)-3-[4-chloro-3-methanesulfonamido-1-(2-methoxyethyl)-1H-indazol-7-yl]-7-(4,4-difluorocyclohexyl)-5-[(2-methoxyethyl)amino]-4-oxo-3H,4H-pyrido[2,3-d]pyrimidin-2-yl]-2-(3,5-difluorophenyl)ethyl]-2-[(2S,4R)-9-(difluoromethyl)-5,5-difluoro-7,8-diazatricyclo[4.3.0.0^2,^4]nona-1(6),8-dien-7-yl]acetamide], the CC50 at 4 days in data set [1] was above 50 nM. The EC50 in data set [2] stood at 0.022 nM.

In the case of `COCCCn1nc(NS(C)(=O)=O)c2c(Cl)ccc(-n3c([C@H](Cc4cc(F)cc(F)c4)NC(=O)Cn4nc(C(F)F)c5c4C(F)(F)[C@@H]4C[C@H]54)nc4nc(C5CCC(F)(F)CC5)cc(NCCOC)c4c3=O)c21` (atropisomer, axis not shown; (P)) [Example 135, N-[(1S)-1-[(3P)-3-[4-chloro-3-methanesulfonamido-1-(3-methoxypropyl)-1H-indazol-7-yl]-7-(4,4-difluorocyclohexyl)-5-[(2-methoxyethyl)amino]-4-oxo-3H,4H-pyrido[2,3-d]pyrimidin-2-yl]-2-(3,5-difluorophenyl)ethyl]-2-[(2S,4R)-9-(difluoromethyl)-5,5-difluoro-7,8-diazatricyclo[4.3.0.0^2,4]nona-1(6),8-dien-7-yl]acetamide], the CC50 at 4 days in data set [1] was above 50 nM. In addition, in data set [2], the EC50 was found to be 0.013 nM.

As to `CS(=O)(=O)Nc1nn(CCN2CCC(F)(F)CC2)c2c(-n3c([C@H](Cc4cc(F)cc(F)c4)NC(=O)Cn4nc(C(F)F)c5c4C(F)(F)[C@@H]4C[C@H]54)nc4nc(C5CCC(F)(F)CC5)cc(C(F)F)c4c3=O)ccc(Cl)c12` (atropisomer, axis not shown; (P)) [Example 149, N-[(1S)-1-[(3P)-3-{4-chloro-1-[2-(4,4-difluoropiperidin-1-yl)ethyl]-3-methanesulfonamido-1H-indazol-7-yl}-7-(4,4-difluorocyclohexyl)-5-(difluoromethyl)-4-oxo-3H,4H-pyrido[2,3-d]pyrimidin-2-yl]-2-(3,5-difluorophenyl)ethyl]-2-[(2S,4R)-9-(difluoromethyl)-5,5-difluoro-7,8-diazatricyclo[4.3.0.0^2,^4]nona-1(6),8-dien-7-yl]acetamide], the CC50 at 4 days in data set [1] was above 50 nM. For the same molecule, in data set [2], the EC50 came to 0.018 nM.
